# Measured values from US8710179B2, “Compositions and methods for concentrating and depleting microorganisms” (priority 2006, dated 2014).
# Where two headings read alike, the source gives them in different places.
# Assays:
# [1] = tested on: GFP-expressing E. coli; experiment: Viability of polymer-captured bacteria, propidium iodide staining
# Method: To establish the viability of polymer-captured bacteria, samples of polymer-captured GFP-expressing bacteria were incubated for 15 minutes at room temperature in a solution of 1 ml propidium iodide (Invitrogen, USA) in PBS (final concentration 0.06 mM), and thereafter centrifuged/washed in PBS and examined under a confocal fluorescent microscope using emission suitable for GFP and propidium iodide (excitation at 490 nm emission at 620 nm).
# [2] = tested on: bacteria; experiment: Antibacterial activity (MIC) of the resin-free polymer, strain not given; assay type: cell-based
# Source text: (§1) “MIC (μM)” represents the minimal inhibitory concentration of each tested polymer in μM for each bacterial strain, measured as described previously (columns 5-8 in Table 3); For bacterial strains, “Ec” represents E. coli; “Pa” represents P. aeruginosa; “Sa” represents S. aureus; and “Bc” represents B. cereus; and […]
# [3] = tested on: S. aureus; assay type: cell-based
# Source text: as §1
# [4] = tested on: E. coli; assay type: cell-based
# Source text: as §1
# [5] = tested on: P. aeruginosa; assay type: cell-based
# Source text: as §1
# [6] = tested on: B. cereus; assay type: cell-based
# Source text: as §1
# [7] = Regeneration and stability of polymer-loaded beads (HPLC and MS after cleavage); assay type: physicochemical
# Source text: To verify their stability and the regeneration thereof, polymer-loaded resin beads were submitted to multiple cycles of bacterial binding followed by their release with 70% ethanol. To assess the potential polymer degradation, the polymer was cleaved from the resin, analyzed by HPLC and identified by mass spectrometry.
# Polymer-loaded beads were exposed to 10 consecutive cycles of bacterial binding and release with 70% ethanol, and were submitted to a cleavage reaction. The cleaved polymers were analyzed by HPLC and mass spectrometry before and after the repetitive cycles. The HPLC chromatograms were obtained over […] elution using a 1% gradient of acetonitrile in water (30% to 60%), and the fraction containing the polymer was subjected to mass spectrometry analysis.
# [8] = tested on: E. coli; assay type: cell-based; remark: listed apart in the source
# Method: (§2) To assess bacterial binding to the beads, filtrates were subjected to serial 10 fold dilutions and plated on LB agar plates. Cell counts were determined using the drop plate method (three 20 μl drops onto LB agar plates) after overnight incubation at 37° C. For the viability study, resins were spread directly on LB agar plates and incubated similarly. For kinetic studies, resins were incubated with 1×10^6 CFU/ml E. coli in LB for up to 15 minutes and filtered after the indicated time periods then plated for CFU count.
# The non-cytotoxicity of the beads-bound polymers was assessed by the viability of the polymer-captured bacteria. E. coli was incubated with beads-bound polymers (10^6 CFU/ml/mg resin), and after filtration, samples of the resins and the filtrates were plated on LB-agar individually.
# FIG. 6 presents a series of images of LB-agar plates, showing the viability of the captured E. coli cells (1×10^6 CFU/ml) which were incubated for 30 minutes with deprotected (FIGS. 6A1 and 6A2) and Boc-protected (FIGS. 6B1 and 6B2) K(NC12K)7NH2-loaded resin beads, wherein FIGS. 6A1 and 6B1 show the plates of the plated filtrates and FIGS. 6A2 and 6B2 show the plates of filtered and plated beads.
# [9] = tested on: E. coli; experiment: Bacteria capture assay with polymer-loaded resin beads (incl. kinetic studies); assay type: binding, Escherichia coli ATCC 35218; details: for Bound E. coli (CFU/mg resin): polymer-loaded resin beads, 30 minutes incubation
# Method: Various concentrations of bacteria in 500 μl luria bertani broth (LB) were shaken at room temperature in the presence of deprotected polymer-loaded beads (1.8 mg of polymer per sample) or protected polymer-loaded and unloaded beads as a control experiment in a centrifuge tube equipped with a 10 μm cutoff membrane (Whatman polypropylene mesh VectaSpin Micro). After 30 minutes incubation the samples were centrifuged at 21,000×g for 5 minutes to separate beads from unbound bacteria and further analyzed as follows.
# as §2
# “Bound E. coli (CFU/mg resin)” represents the capturing capacity of bacterial binding per one milligram of polymer-loaded resin beads as assessed after 30 minutes incubation using the capture assay as presented herein (column 9 in Table 3).
# [10] = Hydrophobicity estimation by RP-HPLC (percent acetonitrile at elution); assay type: physicochemical; details: RP-HPLC C18, linear acetonitrile gradient 1% per minute
# Source text: In order to estimate the hydrophobicity of each polymer, the polymer was eluted with a linear gradient of acetonitrile (1% per minute) on an HPLC reversed-phase C18 column, and the percent of acetonitrile at which the polymer was eluted was used for hydrophobicity estimation (see, “ACN (%)” in Table 3 below).
# “ACN (%)” represents the percent of acetonitrile in the RP-HPLC gradient mobile phase at which the polymer was eluted and which corresponds to the estimated hydrophobicity of the polymer (column 4 in Table 3);
# [11] = tested on: E. coli; experiment: Bacterial binding assay by real-time SPR on polymer-coated chip; details: 10^6 CFU/ml E. coli
# Method: Purified resin-free polymers were immobilized onto the CM5 sensor chip (BIAcore, Uppsala, Sweden) via the terminal carboxyl group using 2-(2-pyridinyldithio)ethaneamine (PDEA). Carboxyl activation was achieved as follows. Morpholino-ethanesulfonic acid (MES buffer, 0.1 ml of 0.1 M) at pH 5.0 was used to solubilize 0.1 mg of the polymer. The solution was mixed with PDEA to final concentration of 22 mM and ethyl-3-(3-dimethylaminopropyl)-carbodiimide (EDC) to final concentration of 13 mM, incubated for 1 hour on ice and then placed in a dialysis tube (floating in buffer) to remove the excess reagents. In parallel, a 1:1 solution (20 μl) of EDC (0.4 M 1-ethyl-3-(3-dimethylaminopropyl)-carbodiimide in water):NHS (0.1 M N-hydroxysuccinimide in water) was injected at a flow rate of 10 μl/minute, to activate the chip surface. […]
# Bacterial binding to the polymer was determined by surface plasmon resonance (SPR) using the optical biosensor system BIAcore 2000 (BIAcore, Uppsala, Sweden). […]
# For real-time monitoring of bacterial capture the present inventors have developed a model system based on the SPR technology that normally enables binding measurements between immobilized receptor molecules and soluble ligands. […] In the example presented herein, the polymer was immobilized onto the sensor chip and bacteria were injected over the polymer-bound surface and their binding monitored in real-time. […]
Molecule,MIC (μM) Sa [3] [µM],MIC (μM) Ec [4] [µM],MIC (μM) Pa [5] [µM],MIC (μM) Bc [6] [µM],Bound E. coli (CFU/mg resin) [9],MIC (μM) Sa ([3]; resin-free polymer) [µM],MIC (μM) Ec ([4]; resin-free polymer) [µM],MIC (μM) Pa ([5]; resin-free polymer) [µM],MIC (μM) Bc ([6]; resin-free polymer) [µM],ACN (%) at which the polymer was eluted (estimated hydrophobicity) [10] [%],other results
NCCCC[C@H](NC(=O)CCCCCCCCCCCNC(=O)[C@H](CCCCN)NC(=O)CCCCCCCCCCCNC(=O)[C@H](CCCCN)NC(=O)CCCCCCCCCCCNC(=O)[C@H](CCCCN)NC(=O)CCCCCCCCCCCNC(=O)[C@H](CCCCN)NC(=O)CCCCCCCCCCCNC(=O)[C@H](CCCCN)NC(=O)CCCCCCCCCCCNC(=O)[C@H](CCCCN)NC(=O)CCCCCCCCCCCNC(=O)[C@@H](N)CCCCN)C(N)=O [K(NC12K)7NH2],>50,>50,>50,>50,,,,,,,"fraction of dead bacteria ([1]; polymer-captured bacteria, did not exceed control suspension): up to 12%; viability of polymer-captured bacteria ([1]; propidium iodide exclusion): most polymer-captured bacteria were alive; MIC [2]: more than 50 μM; stability of the polymer after repeated use [7]: remained unchanged; viable bacteria on the filtered and plated beads [8]: remained alive"
"H-KKKKKKKK-NH2 [Polymer K8NH2, reference compound]",,,,,9 ± 1 × 10^2 CFU/mg resin,>50,>50,>50,>50,20,
dermaseptin [reference compound],,,,,,,,,,,fraction of dead bacteria upon exposure ([1]; polymer-bound bacteria exposed 15 minutes at 12.5 μM): significantly increased
CCCCCCCCCCCC(=O)NC(CCCCN)C(=O)NCCCCCCCC(=O)NC(CCCCN)C(=O)NCCCCCCCC(=O)NC(CCCCN)C(=O)NCCCCCCCC(=O)NC(CCCCN)C(=O)NCCCCCCCC(=O)NC(CCCCN)C(=O)NCCCCCCCC(=O)NC(CCCCN)C(=O)NCCCCCCCC(=O)NC(CCCCN)C(=O)NCCCCCCCC(=O)NC(CCCCN)C(N)=O (stereo not shown) [C12K(NC8K)7NH2],,,,,1 ± 0.5 × 10^3 CFU/mg resin,50,3.1,6.2,12.5,47.5,amount of captured bacteria ([9]; polymer-loaded resin beads exposed to E. coli): approximately 10^3 CFUs
"H-KKKKKKKKKKKKKKK-NH2 [Polymer K15NH2, reference compound]",,,,,1 ± 0.6 × 10^3 CFU/mg resin,>50,>50,>50,>50,22,fold less efficient than the K(NC12K)7NH2-coated chip [11]: more than 100 fold; stability of the polymer after repeated use ([7]; 10 cycles of bacterial binding and release with 70% ethanol): deteriorated over time
NCCCC[C@H](NC(=O)CCCCCCCNC(=O)[C@H](CCCCN)NC(=O)CCCCCCCNC(=O)[C@H](CCCCN)NC(=O)CCCCCCCNC(=O)[C@H](CCCCN)NC(=O)CCCCCCCNC(=O)[C@H](CCCCN)NC(=O)CCCCCCCNC(=O)[C@H](CCCCN)NC(=O)CCCCCCCNC(=O)[C@H](CCCCN)NC(=O)CCCCCCCNC(=O)[C@@H](N)CCCCN)C(N)=O [K(NC8K)7NH2],>50,>50,>50,>50,2 ± 0.6 × 10^2 CFU/mg resin,,,,,34,
